Assays:
Experiment in all cases: relative viability (nuclei count vs DMSO), 5 days (fraction); higher = more cells survive
Trametinib + Decitabine = compound: CC(=O)Nc1cccc(-n2c(=O)n(C3CC3)c(=O)c3c(Nc4ccc(I)cc4F)n(C)c(=O)c(C)c32)c1 [Trametinib] + Nc1ncn([C@H]2C[C@H](O)[C@@H](CO)O2)c(=O)n1 [Decitabine] (partner 2 µM)
Outline: (§1)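 Lung cancer cell lines were pin-tool dosed in 1536-well plates on the day after seeding, with either a lone drug or a fixed anchor-drug dose plus five library-drug doses (not always all listed) in √10 steps. Nuclei were counted on 4× images after 5 days. Relative viability is the ratio of treated-well to vehicle-well nuclei counts, with each value a median of duplicate plates.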

Trametinib + Dasatinib = compound: CC(=O)Nc1cccc(-n2c(=O)n(C3CC3)c(=O)c3c(Nc4ccc(I)cc4F)n(C)c(=O)c(C)c32)c1 [Trametinib] + Cc1nc(Nc2ncc(C(=O)Nc3c(C)cccc3Cl)s2)cc(N2CCN(CCO)CC2)n1 [Dasatinib] (partner 0.075 µM)
Outline: as §1

Trametinib + Lapatinib = compound: CC(=O)Nc1cccc(-n2c(=O)n(C3CC3)c(=O)c3c(Nc4ccc(I)cc4F)n(C)c(=O)c(C)c32)c1 [Trametinib] + CS(=O)(=O)CCNCc1ccc(-c2ccc3ncnc(Nc4ccc(OCc5cccc(F)c5)c(Cl)c4)c3c2)o1 [Lapatinib] (partner 2 µM)
Outline: as §1

[1] = compound: CN1C=C(C2=CC=CC=C21)/C=C\3/C4=C(C=CC=N4)NC3=O + CC(=O)Nc1cccc(-n2c(=O)n(C3CC3)c(=O)c3c(Nc4ccc(I)cc4F)n(C)c(=O)c(C)c32)c1 [Trametinib] (partner 0.02 µM)
Outline: as §1

| Cell Line | relative viability (Trametinib + Decitabine; first compound 0.0025 µM) | relative viability (Trametinib + Decitabine; first compound 0.007906 µM) | relative viability (Trametinib + Decitabine; first compound 0.025 µM) | relative viability (Trametinib + Decitabine; first compound 0.07906 µM) | relative viability (Trametinib + Decitabine; first compound 0.25 µM) | relative viability (Trametinib + Dasatinib; first compound 0.0025 µM) | relative viability (Trametinib + Dasatinib; first compound 0.007906 µM) | relative viability (Trametinib + Dasatinib; first compound 0.025 µM) | relative viability (Trametinib + Dasatinib; first compound 0.07906 µM) | relative viability (Trametinib + Dasatinib; first compound 0.25 µM) | relative viability (Trametinib + Lapatinib; first compound 0.0025 µM) | relative viability (Trametinib + Lapatinib; first compound 0.007906 µM) | relative viability (Trametinib + Lapatinib; first compound 0.025 µM) | relative viability (Trametinib + Lapatinib; first compound 0.07906 µM) | relative viability (Trametinib + Lapatinib; first compound 0.25 µM) | relative viability ([1]; first compound 0.02 µM) | relative viability ([1]; first compound 0.06325 µM) | relative viability ([1]; first compound 0.2 µM) | relative viability ([1]; first compound 0.6325 µM) | relative viability ([1]; first compound 2 µM) |
| --- | --- | --- | --- | --- | --- | --- | --- | --- | --- | --- | --- | --- | --- | --- | --- | --- | --- | --- | --- | --- |
| NCI-H322M | 0.691 | 0.681 | 0.631 | 0.585 | 0.566 | 0.239 | 0.239 | 0.247 | 0.266 | 0.284 | 0.59 | 0.469 | 0.443 | 0.388 | 0.455 | 0.476 | 0.503 | 0.51 | 0.468 | 0.553 |
| NCI-H2170 | 0.491 | 0.451 |  | 0.435 | 0.425 | 0.56 | 0.476 | 0.37 | 0.347 | 0.416 | 0.311 | 0.258 |  | 0.261 | 0.246 | 0.915 | 0.949 | 0.917 | 0.954 | 0.875 |
| BEN | 0.768 | 0.663 | 0.5 | 0.506 | 0.654 | 0.304 | 0.296 | 0.228 | 0.269 | 0.319 | 0.681 | 0.651 |  | 0.506 | 0.593 | 1.05 | 0.981 | 1 | 0.966 | 1.18 |
| NCI-H2009 | 0.306 | 0.303 | 0.247 | 0.273 | 0.267 | 0.203 | 0.169 | 0.143 | 0.168 | 0.157 | 0.841 | 0.612 | 0.225 | 0.343 | 0.236 | 0.261 | 0.255 | 0.293 | 0.296 | 0.263 |
| LC-2-ad | 0.803 | 0.683 | 0.782 | 0.689 | 0.7 | 0.484 | 0.485 | 0.502 | 0.313 | 0.301 | 0.917 | 0.839 | 0.664 | 0.639 | 0.285 | 0.98 | 0.865 | 0.967 | 0.953 | 0.87 |
| NCI-H1437 | 0.574 | 0.471 | 0.557 | 0.394 | 0.431 | 0.374 | 0.207 | 0.162 | 0.118 | 0.217 | 0.673 | 0.278 | 0.17 | 0.178 | 0.209 | 0.596 | 0.593 | 0.545 | 0.453 | 0.531 |
| NCI-H3122 | 0.416 | 0.383 | 0.315 | 0.279 | 0.268 | 0.767 | 0.512 | 0.13 | 0.144 | 0.146 | 0.995 | 0.737 | 0.699 | 0.584 | 0.501 | 0.153 | 0.21 | 0.227 | 0.242 | 0.269 |
| NCI-H727 | 0.818 | 0.619 | 0.541 | 0.431 | 0.453 | 0.31 | 0.212 | 0.347 | 0.196 | 0.244 | 0.606 | 0.415 | 0.291 | 0.297 | 0.216 | 0.461 | 0.344 | 0.361 | 0.373 | 0.401 |
| NCI-H1734 | 0.508 | 0.438 |  | 0.426 | 0.453 | 0.54 | 0.592 | 0.399 | 0.56 | 0.387 | 1.02 | 1.01 |  | 1.03 | 0.517 | 0.603 | 0.619 |  | 0.676 | 0.699 |
| HCC-15 | 0.519 | 0.464 | 0.501 | 0.248 | 0.234 | 0.287 | 0.214 | 0.163 | 0.135 | 0.121 | 0.806 | 0.461 | 0.572 | 0.328 | 0.223 | 0.411 | 0.392 | 0.403 | 0.377 | 0.367 |
| NCI-H2405 | 0.777 | 0.66 | 0.586 |  | 0.544 | 0.209 | 0.187 | 0.19 | 0.173 | 0.183 | 0.992 | 0.68 | 0.498 | 0.499 | 0.481 | 0.686 | 0.561 | 0.564 | 0.657 | 0.617 |
| NCI-H1993 | 0.556 | 0.567 | 0.582 | 0.57 | 0.524 | 0.51 | 0.521 | 0.505 | 0.521 | 0.551 | 0.824 | 0.909 | 0.651 | 0.648 | 0.682 | 0.517 | 0.5 | 0.589 | 0.342 | 0.507 |
| NCI-H1650 | 0.39 | 0.467 | 0.369 | 0.399 | 0.206 | 0.337 | 0.368 | 0.344 | 0.298 | 0.16 | 0.899 | 0.714 | 0.567 | 0.568 | 0.151 | 0.559 | 0.535 | 0.559 | 0.582 | 0.53 |
| NCI-H460 | 0.481 | 0.389 | 0.361 | 0.305 | 0.112 | 0.369 | 0.176 | 0.138 | 0.085 | 0.0431 | 0.897 | 0.754 | 0.42 | 0.148 | 0.0413 | 0.304 | 0.158 | 0.0911 | 0.0905 | 0.12 |
| NCI-H1651 | 0.559 | 0.689 | 0.48 | 0.422 | 0.333 | 0.487 | 0.384 | 0.404 | 0.284 | 0.217 | 0.757 | 0.74 | 0.66 | 0.531 | 0.452 | 0.818 | 0.833 | 0.861 | 0.837 | 0.868 |
| NCI-H1975 | 0.332 | 0.336 | 0.345 | 0.261 | 0.278 | 0.28 | 0.218 | 0.15 | 0.172 | 0.123 | 0.816 | 0.725 | 0.534 | 0.385 | 0.292 | 0.32 | 0.237 | 0.323 | 0.326 | 0.271 |
